For nine compounds, IC50 results are on record in patent publication US20240335442A1 (Eurofarma Laboratórios S.A., priority 2021, published 2024).

The structures appear in SMILES notation.

The target of assay [1] is human sodium channel Nav 1.8 (Homo sapiens (Human), UniProt Q9Y5Y9). The assay can be described thus: Automated whole-cell voltage-clamp (ScreenPatch 384P), Nav 1.8 sodium current, Protocol 1. In kind it is cell-based. Conditions: Protocol 1 (holding voltage -90 mV, 0.1 Hz); CHO cells expressing human Nav 1.8; room temperature; read-out: Nav1.8 IC50. How it is done: (§1) Biological assays were performed on Chinese hamster ovary (CHO) cells expressing the human sodium channels Nav 1.8 and Nav 1.7 stably.
Sequence of human sodium channel Nav 1.8 (Q9Y5Y9 whole entry): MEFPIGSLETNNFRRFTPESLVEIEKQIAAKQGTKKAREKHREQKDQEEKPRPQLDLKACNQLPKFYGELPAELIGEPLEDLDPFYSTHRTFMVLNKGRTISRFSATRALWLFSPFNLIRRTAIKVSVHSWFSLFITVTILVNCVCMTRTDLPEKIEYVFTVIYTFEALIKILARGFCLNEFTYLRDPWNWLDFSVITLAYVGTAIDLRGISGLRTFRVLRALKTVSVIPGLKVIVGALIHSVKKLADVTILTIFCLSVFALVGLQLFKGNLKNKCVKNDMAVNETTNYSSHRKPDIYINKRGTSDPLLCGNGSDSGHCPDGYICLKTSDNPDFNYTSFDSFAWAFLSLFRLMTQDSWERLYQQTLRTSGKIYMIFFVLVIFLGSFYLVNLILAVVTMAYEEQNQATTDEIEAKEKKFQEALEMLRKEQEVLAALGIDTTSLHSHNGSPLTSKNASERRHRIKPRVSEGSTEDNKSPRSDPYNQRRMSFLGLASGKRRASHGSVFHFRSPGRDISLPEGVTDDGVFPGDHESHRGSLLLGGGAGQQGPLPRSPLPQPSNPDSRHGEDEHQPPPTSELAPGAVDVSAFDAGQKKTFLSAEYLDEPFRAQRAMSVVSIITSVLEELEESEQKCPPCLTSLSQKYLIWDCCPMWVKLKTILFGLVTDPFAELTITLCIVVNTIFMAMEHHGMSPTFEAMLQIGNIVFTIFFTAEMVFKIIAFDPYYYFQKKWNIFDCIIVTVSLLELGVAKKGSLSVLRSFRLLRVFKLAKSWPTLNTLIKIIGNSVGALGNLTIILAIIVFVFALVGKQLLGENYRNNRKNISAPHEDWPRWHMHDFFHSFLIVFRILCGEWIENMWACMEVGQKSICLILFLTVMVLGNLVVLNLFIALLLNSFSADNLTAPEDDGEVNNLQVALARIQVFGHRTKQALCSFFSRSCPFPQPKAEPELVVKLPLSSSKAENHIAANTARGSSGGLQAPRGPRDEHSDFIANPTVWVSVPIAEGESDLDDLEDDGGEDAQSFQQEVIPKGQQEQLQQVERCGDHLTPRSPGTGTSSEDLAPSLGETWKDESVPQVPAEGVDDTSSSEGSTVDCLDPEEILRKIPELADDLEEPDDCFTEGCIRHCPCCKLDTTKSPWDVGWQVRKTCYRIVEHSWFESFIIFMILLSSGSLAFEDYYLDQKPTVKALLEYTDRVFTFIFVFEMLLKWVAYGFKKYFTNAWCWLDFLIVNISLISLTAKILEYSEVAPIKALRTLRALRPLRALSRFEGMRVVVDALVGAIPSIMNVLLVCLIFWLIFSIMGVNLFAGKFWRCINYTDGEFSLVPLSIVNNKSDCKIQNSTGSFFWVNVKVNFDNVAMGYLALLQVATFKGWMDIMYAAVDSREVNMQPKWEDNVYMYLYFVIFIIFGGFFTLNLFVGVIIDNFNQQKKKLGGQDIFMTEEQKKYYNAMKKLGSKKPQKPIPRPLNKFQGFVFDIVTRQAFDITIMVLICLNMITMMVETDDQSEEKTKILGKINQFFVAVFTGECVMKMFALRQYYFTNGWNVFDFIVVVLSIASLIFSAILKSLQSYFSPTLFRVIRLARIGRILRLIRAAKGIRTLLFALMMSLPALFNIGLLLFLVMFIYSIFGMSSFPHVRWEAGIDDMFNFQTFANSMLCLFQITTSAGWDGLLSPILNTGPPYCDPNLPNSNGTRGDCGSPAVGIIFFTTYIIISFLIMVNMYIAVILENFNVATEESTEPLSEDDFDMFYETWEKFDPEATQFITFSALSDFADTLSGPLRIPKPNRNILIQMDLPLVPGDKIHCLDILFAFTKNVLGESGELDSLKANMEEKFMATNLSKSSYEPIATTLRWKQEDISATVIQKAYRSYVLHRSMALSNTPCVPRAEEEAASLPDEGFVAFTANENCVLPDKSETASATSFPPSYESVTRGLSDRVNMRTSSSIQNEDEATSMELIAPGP
(§2) The experimental voltage-clamp protocol using the whole cell configuration was established on the automated ScreenPatch® 384P platform (SP384PE, Nanion Technologies, Livingston, NJ) and recording of the results was performed with a Nanion 384-well Patch Clamp chip (NPC) (Nanion Technologies, Livingston, NJ).
(§3) Compounds of Formula (I), were diluted in eight concentrations in the extracellular solution composed of physiological saline, buffered with HEPES (mM): NaCl, 137; KCl, 4; CaCl2, 3.8; MgCl2, 1; HEPES, 10; Glucose, 10; pH 7.4. The […], 50; CsF, 90; MgCl2, 5; EGTA, 5; HEPES, 10; pH 7.2. The duration of exposure of each compound with the cells expressing Nav 1.7 or Nav 1.8 was at least five minutes and the assays were performed at room temperature.
(§4) The measurements of the sodium currents of Nav 1.8 and Nav 1.7 were obtained using the voltage protocols described below: • Protocol 1: A holding voltage of-90 mV was established followed by a voltage phase of 200 ms to-120 mV, followed by a voltage step of 10 mV for 1 second for Nav 1.8 or 0 mV for Nav 1.7, followed by a step of-100 mV for 20 ms, followed by a step of 20 ms for 10 mV for Nav 1.8 or 0 mV for Nav 1.7 (TP1A) before returning to the holding voltage of-90 mV. • Protocol 2: A holding voltage of-100 mV was established followed by an inactivation voltage step at −40 mV for 8 seconds, followed by a −100 mV step for 20 ms, followed by a 20 ms step for 10 mV for Nav 1.8 or 0 mV for Nav 1.7 (TP1A) before returning to the holding voltage of-100 mV.
(§5) Protocols were repeated at a frequency of 0.1 Hz (Protocol 1) or 0.05 Hz (Protocol 2) and current amplitude was quantified over the TP1A phase log. The variation in the peak amplitude of the current was evaluated according to the Formula described below, after exposure of the cells expressing the channels, at each concentration of the different compounds:
(§6) where ITP1A,basal, and ITP1A,molecule represent the entry peaks of sodium currents into TP1A prior to exposure to the compound and in the presence of the compound, respectively.
(§7) The decrease in peak current amplitude, after exposure of the cells to the compounds, was used to calculate the percent relative blocking of the channels relative to the positive control according to the Formula below: […]
(§8) where % V and % CP represent the averages of the values of current inhibition with a vehicle (DMSO) and positive controls, respectively. The sodium currents of the positive control were considered as 100%.
(§9) where [Test] represents the concentration of the evaluated molecule, IC50 is the concentration of the compound that generates half of the maximum inhibition, N is the Hill's coefficient and % Block′ is the percentage of the sodium channel current (Nav 1.8 and Nav 1.7) inhibited at each concentration of the evaluated molecule. Data were obtained by non linear least squares regression with XL fit for Excel (Microsoft, Redmond, WA).
(§10) Compounds were tested in at least one assay to obtain the IC50 value.

Assay [2] addresses human sodium channel Nav 1.7 (Homo sapiens (Human), UniProt Q15858). The assay can be described thus: Automated whole-cell voltage-clamp (ScreenPatch 384P), Nav 1.7 sodium current, Protocol 1. In kind it is cell-based. Conditions: Protocol 1 (holding voltage -90 mV, 0.1 Hz); CHO cells expressing human Nav 1.7; room temperature; read-out: Nav1.7 IC50. On the procedure:
as §1, §2, §3, §4, §5, §6, §7, §8, §9, §10

Sequence of human sodium channel Nav 1.7 (Q15858 whole entry): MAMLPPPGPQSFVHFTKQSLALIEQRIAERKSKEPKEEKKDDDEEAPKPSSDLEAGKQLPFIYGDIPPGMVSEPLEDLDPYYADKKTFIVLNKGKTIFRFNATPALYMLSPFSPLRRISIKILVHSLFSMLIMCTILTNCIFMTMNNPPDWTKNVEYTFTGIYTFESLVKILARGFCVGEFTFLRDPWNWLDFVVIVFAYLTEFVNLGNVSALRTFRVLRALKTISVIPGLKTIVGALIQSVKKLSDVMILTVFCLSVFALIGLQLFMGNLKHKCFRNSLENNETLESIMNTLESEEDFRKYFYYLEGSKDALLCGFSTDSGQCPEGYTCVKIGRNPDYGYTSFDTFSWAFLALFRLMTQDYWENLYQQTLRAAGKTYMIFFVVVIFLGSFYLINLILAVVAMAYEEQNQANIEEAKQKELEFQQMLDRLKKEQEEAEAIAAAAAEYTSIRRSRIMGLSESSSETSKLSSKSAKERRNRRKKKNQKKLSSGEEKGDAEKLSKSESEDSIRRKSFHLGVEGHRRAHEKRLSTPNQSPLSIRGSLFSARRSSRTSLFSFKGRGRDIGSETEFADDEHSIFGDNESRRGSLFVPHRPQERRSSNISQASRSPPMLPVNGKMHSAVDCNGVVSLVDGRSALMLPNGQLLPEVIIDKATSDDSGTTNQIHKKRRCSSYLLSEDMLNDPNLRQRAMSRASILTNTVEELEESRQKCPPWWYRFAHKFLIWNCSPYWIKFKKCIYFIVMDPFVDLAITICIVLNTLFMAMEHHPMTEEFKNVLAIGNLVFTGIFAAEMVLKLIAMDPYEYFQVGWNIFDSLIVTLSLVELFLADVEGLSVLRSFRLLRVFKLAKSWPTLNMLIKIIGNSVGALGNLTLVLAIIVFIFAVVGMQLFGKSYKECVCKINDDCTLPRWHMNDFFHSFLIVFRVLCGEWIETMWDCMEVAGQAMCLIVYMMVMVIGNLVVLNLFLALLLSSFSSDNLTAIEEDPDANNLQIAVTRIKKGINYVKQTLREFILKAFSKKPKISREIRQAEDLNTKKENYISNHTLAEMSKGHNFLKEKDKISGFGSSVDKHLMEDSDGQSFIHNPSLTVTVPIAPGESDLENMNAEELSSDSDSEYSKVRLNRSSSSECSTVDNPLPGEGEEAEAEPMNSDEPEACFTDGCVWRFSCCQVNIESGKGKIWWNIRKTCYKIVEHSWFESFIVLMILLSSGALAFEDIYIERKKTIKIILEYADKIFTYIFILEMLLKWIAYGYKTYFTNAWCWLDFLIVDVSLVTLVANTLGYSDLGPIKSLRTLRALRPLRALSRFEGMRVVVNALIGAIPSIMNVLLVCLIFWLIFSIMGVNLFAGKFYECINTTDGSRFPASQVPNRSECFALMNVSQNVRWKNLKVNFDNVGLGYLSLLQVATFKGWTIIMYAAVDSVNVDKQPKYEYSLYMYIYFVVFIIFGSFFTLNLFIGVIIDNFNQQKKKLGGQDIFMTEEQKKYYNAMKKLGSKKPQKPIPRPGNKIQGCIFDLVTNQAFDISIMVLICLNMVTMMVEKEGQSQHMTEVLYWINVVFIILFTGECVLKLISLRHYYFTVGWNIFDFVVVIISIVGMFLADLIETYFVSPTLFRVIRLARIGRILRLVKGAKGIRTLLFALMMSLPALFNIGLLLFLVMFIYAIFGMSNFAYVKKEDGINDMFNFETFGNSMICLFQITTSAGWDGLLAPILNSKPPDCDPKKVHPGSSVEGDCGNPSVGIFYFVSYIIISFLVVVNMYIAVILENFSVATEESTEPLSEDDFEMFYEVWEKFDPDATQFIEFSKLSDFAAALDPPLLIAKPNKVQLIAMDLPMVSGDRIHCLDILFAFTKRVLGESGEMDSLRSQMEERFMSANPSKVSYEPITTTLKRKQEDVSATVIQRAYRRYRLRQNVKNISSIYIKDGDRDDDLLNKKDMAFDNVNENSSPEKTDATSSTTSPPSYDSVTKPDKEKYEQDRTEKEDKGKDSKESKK

Turning to `CCOc1ccc(-c2cncc(C(=O)N/N=C/c3cc(OC)cc4ncoc34)n2)cc1` [Compound 5, (E)-6-(4-ethoxyphenyl)-N′-((5-methoxybenzo[d]oxazol-7-yl)methylene)pyrazine-2-carbohydrazide], the figures for the concentration for half-maximal inhibition (IC50) in assay [1] and in assay [2] were 5.63 µM and more than 10 µM, respectively.

Turning to `CCOc1ccc(-c2cncc(C(=O)N/N=C/c3cncc(OC)c3)n2)cc1` [Compound 8, (E)-6-(4-ethoxyphenyl)-N′-((5-methoxypyridin-3-yl)methylene)pyrazine-2-carbohydrazide], the IC50 in assay [1] and in assay [2] was more than 10 µM in each case.

`CCOc1ccc(-c2cncc(C(=O)N/N=C/c3cc(OC)ccn3)n2)cc1` [Compound 9, (E)-6-(4-ethoxyphenyl)-N′-((4-methoxypyridin-2-yl)methylene)pyrazine-2-carbohydrazide]: the figures for the IC50 in assay [1] and in assay [2] were 9.77 µM and more than 10 µM, respectively.

With `CCOc1ccc(-c2cncc(C(=O)N/N=C/c3cccc(OC)n3)n2)cc1` [Compound 11, (E)-6-(4-ethoxyphenyl)-N′-((6-methoxypyridin-2-yl)methylene)pyrazine-2-carbohydrazide], the values for the IC50 in assay [1] and in assay [2] were 3.23 µM and 4.52 µM, respectively.

Consider `CCOc1ccc(-c2cncc(C(=O)N/N=C/c3ccc(OC)cc3)n2)cc1` [Compound 23, (E)-6-(4-ethoxyphenyl)-N′-(4-methoxybenzylidene)pyrazine-2-carbohydrazide], for which the values for the IC50 in assay [1] and in assay [2] were 1.9 µM and 0.697 µM, respectively.

Take `CCOc1ccc(-c2cncc(C(=O)N/N=C/c3ccncc3)n2)cc1` [Compound 24, (E)-6-(4-ethoxyphenyl)-N′-(pyridin-4-ylmethylene)pyrazine-2-carbohydrazide]: the IC50 in assay [1] is 8.09 µM; in assay [2], more than 10 µM.

As for `CCOc1ccc(-c2cncc(C(=O)N/N=C/c3ccccn3)n2)cc1` [Compound 25, (E)-6-(4-ethoxyphenyl)-N′-(pyridin-2-ylmethylene)pyrazine-2-carbohydrazide], the IC50 in assay [1] and in assay [2] was more than 10 µM throughout.

Regarding `CCOc1ccc(-c2cncc(C(=O)N/N=C/c3ccc(OC)c(OC)c3)n2)cc1` [Compound 28, (E)-N′-(3,4-dimethoxybenzylidene)-6-(4-ethoxyphenyl)pyrazine-2-carbohydrazide], the IC50 in assay [1] worked out at 2.37 µM; in assay [2] it was 1.41 µM.

Regarding `CCOc1ccc(-c2cncc(C(=O)N/N=C(\C)c3cc(OC)cc(OC)c3)n2)cc1` [Compound 166, (E)-N′-(1-(3,5-dimethoxyphenyl)ethylidene)-6-(4-ethoxyphenyl)pyrazine-2-carbohydrazide], the values for the IC50 in assay [1] and in assay [2] were 9.18 µM and 6.36 µM, respectively.
